Data from publication PMC10528299, “Targeting FAK/PYK2 with SJP1602 for Anti-Tumor Activity in Triple-Negative Breast Cancer” (Current Issues in Molecular Biology, 2023).
Values joined by “and” are separate entries in the source; they are usually repeats but may differ in a detail not shown here. Equal values may be shown once.

Columns and labels:
MDA-MB-231 = assay: 3D spheroid assay MDA-MB-231; assay type: cell-based; conditions: Homo sapiens, 96 h; MDA-MB-231, 2% Matrigel, 4 days treatment; read-out: IC50 3D spheroid cell viability
Description: (§1) Breast cancer cell lines were cultured in medium with or without 2% Matrigel (Corning, NY, USA) for 3 days in each 96-well ultra-low attachment round plate to form a single spheroid at a density of 3 × 10^3 cells/well. SJP1602 was dissolved in DMSO and treated for 4 days at concentrations ranging from 200 nM to 20 μM. Cell viability was quantified according to the manufacturer’s instructions using a CellTiter-Glo 3D cell viability assay (Promega, Madison, WI, USA). Luminescence was measured using the Tecan Spark 10M.

BT-549 = assay: 3D spheroid assay BT-549; assay type: cell-based; conditions: Homo sapiens, 96 h; BT-549, 4 days treatment; read-out: IC50 3D spheroid cell viability
Description: as §1

Hs578T = assay: 3D spheroid assay Hs578T; assay type: cell-based; conditions: Homo sapiens, Hs-578T, 96 h, 4 days treatment, read-out: IC50 3D spheroid cell viability
Description: as §1

4T1 = assay: 3D spheroid assay 4T1; assay type: cell-based; conditions: Mus musculus, 96 h; 4T1, 4 days treatment; read-out: IC50 3D spheroid cell viability
Description: as §1

ALK(h) = biological target: T1, ALK(h) (Homo sapiens, UniProt Q9UM73); assay: Eurofins kinase profiling; assay type: biochemical; conditions: for remaining activity at 1 µM: read-out: residual kinase activity ALK(h)
T1 construct: purchased Eurofins KinaseProfiler
In short: (§2)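 Radiometric detection, with radiolabeled phosphate as substrate, gave the kinase activity after each enzyme was incubated with 1 µM test compound. The run belonged to a 110-assay profiling panel.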

ATR/ATRIP(h) = biological target: T2, ATR/ATRIP(h) (Homo sapiens, UniProt Q13535); assay: Eurofins kinase profiling; assay type: biochemical; conditions: read-out: residual kinase activity ATR/ATRIP(h)
T2 construct: purchased Eurofins KinaseProfiler
In short: as §2

Abl(h) = biological target: T3, Abl(h) (Homo sapiens, UniProt P00519); assay: Eurofins kinase profiling; assay type: biochemical; conditions: read-out: residual kinase activity Abl(h)
T3 construct: purchased Eurofins KinaseProfiler
In short: as §2

B-Raf(V599E)(h) = biological target: T4, B-Raf(V599E)(h) (Homo sapiens, UniProt P15056, V600E); assay: Eurofins kinase profiling; assay type: biochemical; conditions: read-out: residual kinase activity B-Raf(V599E)(h)
T4 construct: purchased Eurofins KinaseProfiler
In short: as §2

Blk(h) = biological target: T5, Blk(h) (Homo sapiens, UniProt P51451); assay: Eurofins kinase profiling; assay type: biochemical; conditions: read-out: residual kinase activity Blk(h)
T5 construct: purchased Eurofins KinaseProfiler
In short: as §2

CSK(h) = biological target: T6, CSK(h) (Homo sapiens, UniProt P41240); assay: Eurofins kinase profiling; assay type: biochemical; conditions: read-out: residual kinase activity CSK(h)
T6 construct: purchased Eurofins KinaseProfiler
In short: as §2

EGFR(h) = biological target: T7, EGFR(h) (Homo sapiens, UniProt P00533); assay: Eurofins kinase profiling; assay type: biochemical; conditions: read-out: residual kinase activity EGFR(h)
T7 construct: purchased Eurofins KinaseProfiler
In short: as §2

Fes(h) = biological target: T8, Fes(h) (Homo sapiens, UniProt P07332); assay: Eurofins kinase profiling; assay type: biochemical; conditions: read-out: residual kinase activity Fes(h)
T8 construct: purchased Eurofins KinaseProfiler
In short: as §2

Met(h) = biological target: T9, Met(h) (Homo sapiens, UniProt P08581); assay: Eurofins kinase profiling; assay type: biochemical; conditions: for remaining activity at 1 µM: read-out: residual kinase activity Met(h)
T9 construct: purchased Eurofins KinaseProfiler
In short: as §2

[1] = biological target: T10, PI3 Kinase (p110a(E545K)/p85a)(h) (Homo sapiens, UniProt P42336, E545K); assay: Eurofins kinase profiling; assay type: biochemical; conditions: read-out: residual kinase activity PI3 Kinase (p110a(E545K)/p85a)(h)
T10 construct: purchased Eurofins KinaseProfiler
In short: as §2

PKCε(h) = biological target: T11, PKCε(h) (Homo sapiens, UniProt Q02156); assay: Eurofins kinase profiling; assay type: biochemical; conditions: read-out: residual kinase activity PKCε(h)
T11 construct: purchased Eurofins KinaseProfiler
T11 sequence (Q02156 1-737): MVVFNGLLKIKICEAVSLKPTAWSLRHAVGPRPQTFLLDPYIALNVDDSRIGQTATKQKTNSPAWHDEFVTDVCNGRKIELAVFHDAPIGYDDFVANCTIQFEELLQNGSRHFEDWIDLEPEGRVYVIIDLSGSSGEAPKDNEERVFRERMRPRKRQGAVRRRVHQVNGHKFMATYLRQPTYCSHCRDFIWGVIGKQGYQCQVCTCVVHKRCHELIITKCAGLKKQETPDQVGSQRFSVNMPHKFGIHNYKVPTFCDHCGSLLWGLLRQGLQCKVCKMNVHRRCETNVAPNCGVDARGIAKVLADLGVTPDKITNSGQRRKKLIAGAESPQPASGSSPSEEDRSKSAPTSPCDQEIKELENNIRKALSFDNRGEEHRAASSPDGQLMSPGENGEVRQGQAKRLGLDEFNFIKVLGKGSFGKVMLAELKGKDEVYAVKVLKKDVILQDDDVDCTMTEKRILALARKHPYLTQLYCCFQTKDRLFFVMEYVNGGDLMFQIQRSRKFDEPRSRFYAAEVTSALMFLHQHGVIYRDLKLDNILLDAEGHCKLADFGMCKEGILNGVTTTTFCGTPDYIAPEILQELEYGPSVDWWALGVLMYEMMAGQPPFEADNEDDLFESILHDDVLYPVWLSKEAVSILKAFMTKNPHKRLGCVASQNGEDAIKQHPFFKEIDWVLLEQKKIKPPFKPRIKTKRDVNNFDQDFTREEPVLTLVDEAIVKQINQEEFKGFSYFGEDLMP
In short: as §2

TrkA(h) = biological target: T12, TrkA(h) (Homo sapiens, UniProt P04629); assay: Eurofins kinase profiling; assay type: biochemical; conditions: read-out: residual kinase activity TrkA(h)
T12 construct: purchased Eurofins KinaseProfiler
In short: as §2

cSRC(h) = biological target: T13, cSRC(h) (Homo sapiens, UniProt P12931); assay: Eurofins kinase profiling; assay type: biochemical; conditions: read-out: residual kinase activity cSRC(h)
T13 construct: purchased Eurofins KinaseProfiler
In short: as §2

p70S6K(h) = biological target: T14, p70S6K(h) (Homo sapiens, UniProt P23443); assay: Eurofins kinase profiling; assay type: biochemical; conditions: read-out: residual kinase activity p70S6K(h)
T14 construct: purchased Eurofins KinaseProfiler
In short: as §2

MDA-MB-231 xenograft = MDA-MB-231 xenograft mouse model
Description: (§3) Upon establishment of tumors, with an average tumor volume reaching approximately 100 mm^3, mice were grouped and subjected to daily oral dosing. […] The duration of drug administration was defined for 2 weeks based on the growth rate of the vehicle group of each xenografted tumor. The tumor volume was measured three times a week for potency measurement, and the body weight of mice was also measured three times a week for toxicity evaluation in vivo.

MDA-MB-453 xenograft = MDA-MB-453 xenograft mouse model; conditions: for TGI: 56 days
Description: as §3

T2 sequence (Q13535 whole entry): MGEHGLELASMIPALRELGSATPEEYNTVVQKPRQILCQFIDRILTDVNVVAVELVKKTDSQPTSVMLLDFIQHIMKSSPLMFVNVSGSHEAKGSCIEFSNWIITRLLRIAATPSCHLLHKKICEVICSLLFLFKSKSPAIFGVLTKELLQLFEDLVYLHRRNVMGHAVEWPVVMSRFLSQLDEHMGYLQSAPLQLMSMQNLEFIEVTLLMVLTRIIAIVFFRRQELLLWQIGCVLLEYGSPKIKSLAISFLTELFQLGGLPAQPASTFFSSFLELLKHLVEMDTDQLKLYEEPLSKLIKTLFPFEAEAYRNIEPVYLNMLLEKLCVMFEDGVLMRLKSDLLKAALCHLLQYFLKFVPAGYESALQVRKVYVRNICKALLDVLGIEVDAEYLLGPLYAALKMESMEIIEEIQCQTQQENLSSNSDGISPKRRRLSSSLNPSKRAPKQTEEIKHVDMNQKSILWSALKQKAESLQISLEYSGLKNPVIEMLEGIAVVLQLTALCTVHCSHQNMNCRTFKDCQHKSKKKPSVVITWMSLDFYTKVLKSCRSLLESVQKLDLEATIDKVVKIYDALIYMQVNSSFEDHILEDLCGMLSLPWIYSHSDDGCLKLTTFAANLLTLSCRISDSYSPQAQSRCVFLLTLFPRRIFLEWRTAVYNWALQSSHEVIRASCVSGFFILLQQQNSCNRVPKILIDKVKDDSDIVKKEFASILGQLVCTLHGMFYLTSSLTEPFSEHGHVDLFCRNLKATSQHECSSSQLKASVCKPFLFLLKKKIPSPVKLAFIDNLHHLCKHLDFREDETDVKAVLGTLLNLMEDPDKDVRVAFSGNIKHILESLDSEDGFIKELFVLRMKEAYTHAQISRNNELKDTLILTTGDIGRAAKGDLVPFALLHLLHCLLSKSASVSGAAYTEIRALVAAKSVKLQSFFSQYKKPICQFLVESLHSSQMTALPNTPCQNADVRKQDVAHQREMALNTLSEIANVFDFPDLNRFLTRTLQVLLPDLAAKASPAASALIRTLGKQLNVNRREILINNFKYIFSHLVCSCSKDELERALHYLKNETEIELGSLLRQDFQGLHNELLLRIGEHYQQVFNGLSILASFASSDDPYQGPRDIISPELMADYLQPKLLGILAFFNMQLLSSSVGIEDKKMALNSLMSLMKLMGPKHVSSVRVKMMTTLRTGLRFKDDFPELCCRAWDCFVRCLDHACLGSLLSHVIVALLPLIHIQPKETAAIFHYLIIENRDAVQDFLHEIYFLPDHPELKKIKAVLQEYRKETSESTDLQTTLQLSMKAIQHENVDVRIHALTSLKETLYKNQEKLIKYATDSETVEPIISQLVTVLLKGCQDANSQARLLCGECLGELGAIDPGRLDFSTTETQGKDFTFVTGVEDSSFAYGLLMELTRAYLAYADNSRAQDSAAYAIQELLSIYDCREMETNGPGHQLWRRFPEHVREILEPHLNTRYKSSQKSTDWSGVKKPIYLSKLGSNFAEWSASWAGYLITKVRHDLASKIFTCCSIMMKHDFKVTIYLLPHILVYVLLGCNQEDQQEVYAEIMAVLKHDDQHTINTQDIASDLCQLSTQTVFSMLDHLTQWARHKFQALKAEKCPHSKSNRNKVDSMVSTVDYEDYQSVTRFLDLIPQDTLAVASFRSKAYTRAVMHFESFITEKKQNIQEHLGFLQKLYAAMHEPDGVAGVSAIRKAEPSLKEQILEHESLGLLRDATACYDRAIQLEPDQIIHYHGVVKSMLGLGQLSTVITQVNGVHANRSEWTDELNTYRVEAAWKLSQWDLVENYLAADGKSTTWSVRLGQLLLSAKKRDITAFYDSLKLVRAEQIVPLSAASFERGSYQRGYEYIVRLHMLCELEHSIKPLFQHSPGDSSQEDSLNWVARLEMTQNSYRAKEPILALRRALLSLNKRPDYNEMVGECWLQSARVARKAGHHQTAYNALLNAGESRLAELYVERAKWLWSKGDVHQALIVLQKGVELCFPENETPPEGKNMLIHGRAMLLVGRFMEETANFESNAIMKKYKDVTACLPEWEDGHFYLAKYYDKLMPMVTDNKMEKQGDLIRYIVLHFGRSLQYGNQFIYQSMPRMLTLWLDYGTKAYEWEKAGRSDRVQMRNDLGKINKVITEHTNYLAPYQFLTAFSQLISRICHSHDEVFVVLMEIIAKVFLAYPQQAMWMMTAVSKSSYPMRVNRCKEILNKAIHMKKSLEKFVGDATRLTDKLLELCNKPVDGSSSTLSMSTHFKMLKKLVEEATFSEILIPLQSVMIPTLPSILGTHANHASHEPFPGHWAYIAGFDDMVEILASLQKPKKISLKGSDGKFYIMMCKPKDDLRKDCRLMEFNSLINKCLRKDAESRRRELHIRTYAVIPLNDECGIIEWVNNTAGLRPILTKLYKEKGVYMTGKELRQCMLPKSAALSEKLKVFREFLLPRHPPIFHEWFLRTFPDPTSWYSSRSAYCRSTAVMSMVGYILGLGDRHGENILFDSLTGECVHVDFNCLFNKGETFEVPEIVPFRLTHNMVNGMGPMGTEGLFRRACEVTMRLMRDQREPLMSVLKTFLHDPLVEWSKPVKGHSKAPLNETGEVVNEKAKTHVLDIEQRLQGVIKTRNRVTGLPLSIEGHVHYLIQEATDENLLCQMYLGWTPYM
T2 sequence (Q8WXE1 whole entry partner): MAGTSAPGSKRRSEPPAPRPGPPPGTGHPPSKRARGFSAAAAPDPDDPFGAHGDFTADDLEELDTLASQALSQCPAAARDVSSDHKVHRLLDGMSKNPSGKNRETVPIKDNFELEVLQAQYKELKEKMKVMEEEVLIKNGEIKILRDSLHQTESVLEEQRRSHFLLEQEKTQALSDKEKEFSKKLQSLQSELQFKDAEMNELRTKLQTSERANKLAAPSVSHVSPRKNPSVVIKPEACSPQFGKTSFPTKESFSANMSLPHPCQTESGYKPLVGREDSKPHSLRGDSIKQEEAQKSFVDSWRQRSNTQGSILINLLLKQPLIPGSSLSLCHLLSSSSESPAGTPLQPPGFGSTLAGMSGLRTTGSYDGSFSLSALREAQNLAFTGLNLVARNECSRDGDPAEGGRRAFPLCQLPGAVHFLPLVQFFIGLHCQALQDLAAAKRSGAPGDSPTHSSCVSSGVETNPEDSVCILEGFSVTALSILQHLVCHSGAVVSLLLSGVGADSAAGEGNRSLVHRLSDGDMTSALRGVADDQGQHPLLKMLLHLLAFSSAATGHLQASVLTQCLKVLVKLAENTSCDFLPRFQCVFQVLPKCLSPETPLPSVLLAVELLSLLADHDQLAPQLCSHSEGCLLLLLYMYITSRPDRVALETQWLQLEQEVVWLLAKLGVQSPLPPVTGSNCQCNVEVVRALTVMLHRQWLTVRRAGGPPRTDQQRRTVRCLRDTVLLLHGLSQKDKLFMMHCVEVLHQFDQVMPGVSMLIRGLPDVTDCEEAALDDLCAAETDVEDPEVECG
T14 sequence (P23443 whole entry): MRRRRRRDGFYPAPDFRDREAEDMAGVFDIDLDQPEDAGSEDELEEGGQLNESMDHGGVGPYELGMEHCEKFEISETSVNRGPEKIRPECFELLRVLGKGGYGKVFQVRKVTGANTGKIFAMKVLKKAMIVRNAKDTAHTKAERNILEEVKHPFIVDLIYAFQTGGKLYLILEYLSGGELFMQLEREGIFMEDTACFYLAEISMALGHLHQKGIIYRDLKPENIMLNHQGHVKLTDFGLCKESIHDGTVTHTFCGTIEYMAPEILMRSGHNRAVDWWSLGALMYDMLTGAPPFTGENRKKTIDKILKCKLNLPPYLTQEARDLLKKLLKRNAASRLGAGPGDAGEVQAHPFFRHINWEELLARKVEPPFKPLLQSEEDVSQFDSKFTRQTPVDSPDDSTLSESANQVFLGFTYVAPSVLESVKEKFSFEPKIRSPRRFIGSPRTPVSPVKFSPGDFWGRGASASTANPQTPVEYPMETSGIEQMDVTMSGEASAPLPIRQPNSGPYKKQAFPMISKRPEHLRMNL
T8 sequence (P07332 whole entry): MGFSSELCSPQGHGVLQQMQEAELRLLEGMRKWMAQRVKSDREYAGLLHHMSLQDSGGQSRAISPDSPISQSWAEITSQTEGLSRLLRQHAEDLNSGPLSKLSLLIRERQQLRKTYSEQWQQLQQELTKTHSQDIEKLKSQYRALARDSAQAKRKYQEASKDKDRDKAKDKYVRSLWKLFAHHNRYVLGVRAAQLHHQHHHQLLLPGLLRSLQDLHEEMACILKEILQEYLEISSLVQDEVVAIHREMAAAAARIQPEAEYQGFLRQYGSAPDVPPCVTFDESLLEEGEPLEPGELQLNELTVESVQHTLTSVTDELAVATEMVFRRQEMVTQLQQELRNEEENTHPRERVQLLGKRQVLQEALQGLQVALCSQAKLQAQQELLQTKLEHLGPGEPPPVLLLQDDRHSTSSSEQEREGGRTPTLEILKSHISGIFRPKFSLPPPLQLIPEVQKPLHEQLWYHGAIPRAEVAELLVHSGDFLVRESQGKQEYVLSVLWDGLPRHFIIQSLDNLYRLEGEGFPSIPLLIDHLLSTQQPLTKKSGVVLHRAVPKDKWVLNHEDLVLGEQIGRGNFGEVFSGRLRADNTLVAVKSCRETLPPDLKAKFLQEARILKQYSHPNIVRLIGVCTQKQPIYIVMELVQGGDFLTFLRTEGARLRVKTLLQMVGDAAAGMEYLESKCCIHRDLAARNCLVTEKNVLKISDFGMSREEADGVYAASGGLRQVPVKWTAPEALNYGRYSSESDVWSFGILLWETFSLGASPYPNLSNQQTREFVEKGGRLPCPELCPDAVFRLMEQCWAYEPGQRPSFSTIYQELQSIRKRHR

IC50 (MDA-MB-231)	IC50 (BT-549)	IC50 (4T1)	remaining activity at 1 µM (ALK(h))	remaining activity at 1 µM (ATR/ATRIP(h))	remaining activity at 1 µM (Abl(h))	remaining activity at 1 µM (B-Raf(V599E)(h))	remaining activity at 1 µM (Blk(h))	remaining activity at 1 µM (CSK(h))	remaining activity at 1 µM (EGFR(h))	remaining activity at 1 µM (Fes(h))	remaining activity at 1 µM (Met(h))	remaining activity at 1 µM [1]	remaining activity at 1 µM (PKCε(h))	remaining activity at 1 µM (TrkA(h))	remaining activity at 1 µM (cSRC(h))	remaining activity at 1 µM (p70S6K(h))	Compound	IC50 (Hs578T)	TGI (MDA-MB-453 xenograft; 80 mg/kg po QD)	also measured
1.12 µM	> 10 µM	> 10 µM	73%	101%	99%	67%	117%	92%	98%	49%	76%	93%	112%	103%	88%	69%	CONC(=O)c1ccccc1Nc1cc(Nc2cc(C)nn2C(C)C)ncc1Cl [GSK2256098]	> 10 µM		
0.427 µM	> 10 µM	1.19 µM	96%	92%	57%	89%	62%	88%	105%	7%	42%	100%	98%	2%	72%	98%	CNC(=O)c1ccc(Nc2ncc(C(F)(F)F)c(NCc3nccnc3N(C)S(C)(=O)=O)n2)cc1 [VS-6063, Defactinib]	4.49 µM	110.9%	TGI (MDA-MB-231 xenograft; 80 mg/kg po QD, day 14): 54.6%

Compound	IC50 (MDA-MB-231)	IC50 (BT-549)	IC50 (4T1)	remaining activity at 1 µM (ALK(h))	remaining activity at 1 µM (ATR/ATRIP(h))	remaining activity at 1 µM (Abl(h))	remaining activity at 1 µM (B-Raf(V599E)(h))	remaining activity at 1 µM (Blk(h))	remaining activity at 1 µM (CSK(h))	remaining activity at 1 µM (EGFR(h))	remaining activity at 1 µM (Fes(h))	remaining activity at 1 µM (Met(h))	remaining activity at 1 µM [1]	remaining activity at 1 µM (PKCε(h))	remaining activity at 1 µM (TrkA(h))	remaining activity at 1 µM (cSRC(h))	remaining activity at 1 µM (p70S6K(h))	IC50 (Hs578T)	TGI (MDA-MB-453 xenograft; 80 mg/kg po QD)	also measured
CNC(=O)c1cccc(C)c1Nc1nc(Nc2ccc(N3CCN(C4C5CC6CC4CC(O)(C6)C5)CC3)cc2OC)ncc1C(F)(F)F (centres unmarked) [SJP1602, 2-((2-((4-(4-((2s,5r)-5-hydroxyadamantan-2-yl)piperazin-1-yl)-2-methoxyphenyl)amino)-5-(trifluoromethyl)pyrimidin-4-yl)amino)-N,3-dimethylbenzamide]	0.742 µM	4.71 µM	0.184 µM	28%	97%	76%	105%	85%	83%	112%	54%	21%	98%	103%	109%	99%	124%	> 10 µM	114.1%	inhibition at 1 µM (ALK(h)): 72%; inhibition at 1 µM (Met(h)): 79%; TGI (MDA-MB-231 xenograft; 20 mg/kg po QD, day 14, 20 mg/kg): 72% and 72.1%; TGI (MDA-MB-231 xenograft; 40 mg/kg po QD, day 14, 40 mg/kg): 74%; TGI (MDA-MB-231 xenograft; 80 mg/kg po QD, day 14, 80 mg/kg): 81% and 81.3%; tumor mass and weight (MDA-MB-231 xenograft; 80 mg/kg, day 14): significant reduction; TGI (MDA-MB-453 xenograft; 20 mg/kg po QD): 88.9%; tumor volume and weight (MDA-MB-453 xenograft; 80 mg/kg, day 56): substantial reduction
